One may read the IC50 as the concentration that inhibits the measured activity by half.

The test system of this assay is cytokine-stimulated human umbilical vein endothelial cells. Nature of the assay: Cell Adhesion Assay: adherence of fluorescently-labelled leukocytes to endothelial cell monolayers. The conditions noted are these: inhibition of cytokine-stimulated adhesion minus basal adhesion; calcein-AM labelled leukocytes on HUVEC monolayers. It counts as cell-based. On the procedure:
The antiadhesion activity of compounds of the invention was determined using a modification of the previously described method, Jurgensen, C. H. et. al., J. Immunol. 144: 653-661. The adhesiveness of cytokine-stimulated human umbilical vein endothelial cells was assessed by quantitating the adherence of fluorescently-labelled (calcein-AM, Molecular Probes, Eugene, Oreg.) leukocytes to endothelial cell monolayers. Activity was determined by calculating inhibition of cytokine-stimulated adhesion minus the basal adhesion (unstimulated).
With `COCCOCCOCCOCCOCCOCCOCCOCCOCCOC(=O)/C=C/c1ccc(-c2nc3c(c(=O)n(C)c(=O)n3CC3CCCCC3)n2C)cc1` [Example 105, (E)-4-[(3-Cyclohexylmethyl)-2,3,6,7-tetrahydro-2,6dioxo-1,7-dimethyl-1H-purin-8-yl]cinnamic Acid Nonaethylene Glycol Methyl Ether Ester], the IC50 was 200 ± 80 nM. Take `COCCOCCOCCOCCOCCOCCOCCOCCOCCOC(=O)/C=C/c1ccc(-c2nc3c(=O)[nH]c(=O)n(CC(C)C)c3[nH]2)cc1` [Example 57]: the IC50 is 83 ± 41 nM. As for `COCCOCCOCCOCCOCCOCCOCCOCCOCCOC(=O)/C=C/c1ccc(-c2nc3c(=O)n(C)c(=O)n(Cc4ccc(C#N)cc4)c3[nH]2)cc1` [Example 51, (E)-4-(1-methyl-3-(4-cyanobenzyl)-1,2,3,6-tetrahydro-2,6-dioxo-9H-purin-8-yl)cinnamic Acid Nonaethylene Glycol Methyl Ether Ester], the IC50 was > 2000 nM.

In the case of `COCCOCCOCCOCCOCCOCCOCCOCCOCCN(CC1CC1)C(=O)/C=C/c1ccc(-c2nc3c(=O)n(CC4CCCCC4)c(=O)n(CC4CCCCC4)c3[nH]2)cc1` [Example 100, (E)-4-(1,3-Bis(cyclohexylmethyl)-1,2,3,6-tetrahydro-2,6-dioxo-9H-purin-8-yl)cinnamic Acid N-cyclopropylmethyl Nonaethylene Glycol Methyl Ether Amide], the half-inhibitory concentration (IC50) was 25 ± 8 nM. The same measure for `COCCOCCOCCOCCOCCOCCOCCOCCOCCOC(=O)/C=C/c1ccc(-c2nc3c(c(=O)n(CC4CCCCC4)c(=O)n3CC3CCCCC3)n2CC#N)cc1` [Example 87, (E)-4-(1,3-Bis(cyclohexylmethyl)-2,3,6,7-tetrahydro-2,6-dioxo-7-(cyanomethyl)-1H-purin-8-yl)cinnamic Acid Nonaethylene Glycol Methyl Ether Ester]: 37 ± 13 nM; for `COCCOCCOCCOCCOCCOCCOCCOCCOCCOC(=O)/C=C/c1ccc(-c2nc3c(=O)n(CC4CCCCCC4)c(=O)n(CC4CCCCCC4)c3[nH]2)cc1` [Example 40, (E)-4-(1,3-bis(cycloheptylmethyl)-1,2,3,6-tetrahydro-2,6-dioxo-9H-purin-8-yl)cinnamic Acid Nonaethylene Glycol Methyl Ether Ester]: 14 ± 7 nM; for `COCCOCCOCCOCCOCCOCCOCCOCCOCCOC(=O)/C=C/c1ccc(-c2nc3c(=O)n(C)c(=O)n(CC4CCCCC4)c3[nH]2)cc1` [Example 62]: 160 ± 85 nM. Next, `COCCOCCOCCOCCOCCOCCOCCOCCOCCOC(=O)/C=C/c1ccc(-c2nc3c(=O)n(CC4CC4)c(=O)n(CC4CC4)c3[nH]2)cc1` [Example 38, (E)-4-(1,3-bis(cyclopropylmethyl)-1,2,3,6-tetrahydro-2,6-dioxo-9H-purin-8-yl)cinnamic Acid Nonaethylene Glycol Methyl Ether Ester]: 150 ± 83 nM.

For `COCCOCCOCCOCCOCCOCCOCCOCCOCCOC(=O)/C=C/c1ccc(-c2nc3c(=O)n(Cc4cccnc4)c(=O)n(Cc4cccnc4)c3[nH]2)cc1` [Example 64, (E)-4-(1,3-Bis(3-pyridinylmethyl)-1,2,3,6-tetrahydro-2,6-dioxo-9H-purin-8-yl)cinnamic Acid Nonaethylene Glycol Methyl Ether Ester], the IC50 was > 1000 nM.

As for `COCCOCCOCCOCCOCCOCCOCCOCCOCCOC(=O)/C=C/c1ccc(-c2nc3c(=O)n(Cc4ccc(F)cc4)c(=O)n(Cc4ccc(F)cc4)c3[nH]2)cc1` [Example 58, (E)-4-(1,3-bis(4-fluorobenzyl)-1,2,3,6-tetrahydro-2,6-dioxo-9H-purin-8-yl)cinnamic Acid Nonaethylene Glycol Methyl Ether Ester], the IC50 is < 0.1 nM. The same measure for `COCCOCCOCCOCCOCCOCCOCCOCCOCCOC(=O)c1ccc(-c2nc3c(c(=O)n(CC4CCCCC4)c(=O)n3CC3CCCCC3)n2C)cc1` [Example 89, 4-(1,3-Bis(cyclohexylmethyl)-2,3,6,7-tetrahydro-2,6-dioxo-7-methyl-1H-purin-8-yl)benzoic Acid Nonaethylene Glycol Methyl Ether Ester]: 38 ± 18 nM; for `COCCOCCOCCOCCOCCOCCOCCOCCOCCNC(=O)/C=C/c1cccc(-c2nc3c(=O)n(CC4CCCCC4)c(=O)n(CC4CCCCC4)c3[nH]2)c1` [Example 67, (E)-3-(1,3-bis(cyclohexylmethyl)-1,2,3,6-tetrahydro-2,6-dioxo-9H-purin-8-yl)cinnamic Acid Nonaethylene Glycol Methyl Ether Amide]: 2000 ± 820 nM; for `COCCOCCOCCOCCOCCOCCOCCOCCOCCOC(=O)/C=C/c1ccc(-c2nc3c(=O)n(-c4ccccc4)c(=O)n(-c4ccccc4)c3[nH]2)cc1` [Example 42, (E)-4-(1,3-bis(phenyl)-1,2,3,6-tetrahydro-2,6-dioxo-9H-purin-8-yl)cinnamic Acid Nonaethylene Glycol Methyl Ether Ester]: 12 ± 12 nM. The same measure for `CCCCn1c(=O)n(CC2CCCCC2)c(=O)c2nc(-c3ccc(/C=C/C(=O)OCCOCCOCCOCCOCCOCCOCCOCCOCCOC)cc3)[nH]c21` [Example 48]: < 0.1 nM; for `COCCOCCOCCOCCOCCOCCOCCOC(=O)/C=C/c1ccc(-c2nc3c(c(=O)[nH]c(=O)n3CC3CCCCC3)n2C)cc1` [Example 103, (E)-4-[(3-Cyclohexylmethyl)-2,3,6,7-tetrahydro-2,6-dioxo-7-methyl-1H-purin-8-yl]cinnamic Acid Heptaethylene Glycol Methyl Ether Ester]: 230 ± 110 nM. As to `COCCOCCOCCOCCOCCOCCOCCOCCOCCNC(=O)/C=C/c1ccc(-c2nc3c(c(=O)n(CC4CCCCC4)c(=O)n3CC3CCCCC3)n2C)cc1` [Example 91, (E)-4-(1,3-Bis(cyclohexylmethyl)-2,3,6,7-tetrahydro-2,6-dioxo-7-methyl-1H-purin-8-yl)cinnamic Acid Nonaethylene Glycol Methyl Ether Amide], the IC50 was 60 ± 29 nM. The same measure for `COCCOCCOCCOCCOCCOCCOCCOCCOCCOC(=O)/C=C/c1ccc(-c2nc3c(=O)n(CCC4CCCCC4)c(=O)n(CCC4CCCCC4)c3[nH]2)cc1` [Example 41, (E)-4-(1,3-bis(2-cyclohexylethyl)-1,2,3,6-tetrahydro-2,6-dioxo-9H-purin-8-yl)cinnamic Acid Nonaethylene Glycol Methyl Ether Ester]: 21 ± 12 nM; for `COCCOCCOCCOCCOCCOCCOCCOCCOCCNC(=O)c1ccc(-c2nc3c(=O)n(CC4CCCCC4)c(=O)n(CC4CCCCC4)c3[nH]2)cc1` [Example 75, 4-(1,3-Bis(cyclohexylmethyl)-1,2,3,6-tetrahydro-2,6-dioxo-9H-purin-8-yl)benzoic Acid Nonaethylene Glycol Methyl Ether Amide]: 60 ± 25 nM.

On to `COCCOCCOCCOCCOCCOCCOCCOCCOCCOC(=O)/C=C/c1ccc(-c2nc3c(=O)n(CCc4ccccc4)c(=O)n(CCc4ccccc4)c3[nH]2)cc1` [Example 55, (E)-4-(1,3-bis(2-phenylethyl)-1,2,3,6-tetrahydro-2,6-dioxo-9H-purin-8-yl)cinnamic Acid Nonaethylene Glycol Methyl Ether Ester], for which the IC50 was 51 ± 45 nM. Next, `COCCOCCOCCOCCOCCOCCOCCOCCOCCOC(=O)/C=C/c1ccc(-c2nc3c(c(=O)n(CC4CCCCC4)c(=O)n3CC3CCCCC3)n2CC(=O)c2ccccc2)cc1` [Example 78, (E)-4-(1,3-Bis(cyclohexylmethyl)-2,3,6,7-tetrahydro-2,6-dioxo-7-(2-oxo-2-phenylethyl)-1H-purin-8-yl)cinnamic Acid Nonaethylene Glycol Methyl Ether Ester]: 0.1 ± 0.09 nM.

The record behind these values is patent US6608069B1, “Phenyl xanthine derivatives” (SmithKline Beecham Corporation, priority 1998, dated 2003).
